Results published in BindingDB's records for doi:10.7270/Q20863PV (University of Pittsburgh, 2006).
pIC50: −log10 of the molar value.

Molecular target: T1, Dual specificity protein phosphatase 1 (Homo sapiens, UniProt P28562)
T1 sequence (P28562 whole entry): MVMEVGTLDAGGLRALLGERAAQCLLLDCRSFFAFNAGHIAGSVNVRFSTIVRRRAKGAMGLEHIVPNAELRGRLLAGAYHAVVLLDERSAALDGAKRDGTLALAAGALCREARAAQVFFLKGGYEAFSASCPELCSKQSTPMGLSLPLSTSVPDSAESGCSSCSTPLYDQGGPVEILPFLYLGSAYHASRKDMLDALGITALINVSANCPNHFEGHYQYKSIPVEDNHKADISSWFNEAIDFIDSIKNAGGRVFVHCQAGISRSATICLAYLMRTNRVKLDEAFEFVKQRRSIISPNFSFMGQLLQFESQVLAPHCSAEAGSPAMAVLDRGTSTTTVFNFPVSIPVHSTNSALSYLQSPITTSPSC
Test: DTT effect on MKP-1 inhibitor potency – biochemical, DTT added, probe assessment, dose response (AID 558)

Structure (SMILES) | pIC50
COC(=O)c1ccccc1NC(=O)CN1C(=O)C2CCCN2c2ncc(Cl)cc21 (configuration not stated) [MLS000094302] | < 4.30
CCCSc1nnc(NC(=O)c2sc3nc(-c4cccs4)ccc3c2N)s1 [3-amino-N-(5-propylsulfanyl-1,3,4-thiadiazol-2-yl)-6-thiophen-2-ylthieno[2,3-b]pyridine-2-carboxamide] | 4.59
Cc1ccc(C)n1-c1cccc(C(=O)O)c1 | 4.77
Cn1ncnc2c(=O)n(C)c(=O)nc1-2 | < 4.30
CC1=C(/C=C/C(C)=C/C=C/C(C)=C/C(=O)O)C(C)(C)CCC1 [ALL-TRANS-RETINOIC ACID] | 4.31
N#Cc1c(N)sc(=S)c2c1CCN(Cc1ccccc1)C2 [3-Amino-7-benzyl-1-thioxo-5,6,7,8-tetrahydro-1H-thiopyrano[3,4-c]pyridine-4-carbonitrile] | < 4.30
CCOc1cc(/C=C(/C#N)c2ccc(F)cc2)ccc1OCc1ccc(C(=O)O)o1 [5-[[4-[(E)-2-cyano-2-(4-fluorophenyl)ethenyl]-2-ethoxyphenoxy]methyl]furan-2-carboxylic acid] | 4.38
CC(C)(C)N1C(=O)Cc2c1nc(N)c1c(N)nc(N3CCCCC3CO)c(C#N)c21 (configuration not stated) [5,6-bis(azanyl)-3-tert-butyl-8-[2-(hydroxymethyl)piperidin-1-yl]-2-oxidanylidene-1H-pyrrolo[2,3-c][2,7]naphthyridine-9-carbonitrile] | < 4.30
COc1ccc(Cn2c(C)nc3c(c2=O)c2nc4ccccc4nc2n3Cc2ccco2)cc1 [MLS000079944] | 4.66
O=C(Nc1ccc2nc(-c3ccco3)c(-c3ccco3)nc2c1)N1CCCCCC1 | 4.62
O=C1C=Cc2ccccc2C1=O [1,2-dihydronaphthalene-1,2-dione] | 4.65
Nc1nc2c(s1)CCc1c-2cnn1-c1ccccc1 [MLS000085948] | < 4.30
CCn1nc(-c2ccccc2)nc2c(=O)n(C)c(=O)nc1-2 [1-Ethyl-6-methyl-3-phenyl-1H-pyrimido[5,4-e][1,2,4]triazine-5,7-dione] | < 4.30
O=C1C=C(NCc2ccc(Cl)c(Cl)c2)CC1 [3-[(3,4-dichlorobenzyl)amino]cyclopent-2-en-1-one] | < 4.30
O=C1C(=C2C(=O)c3ccccc3C2=O)Nc2ccccc21 [MLS000071738] | < 4.30
COc1ccc(-c2cc3nc(C4CCN(C(=O)OC(C)(C)C)CC4)c(C(=O)O)cn3n2)cc1 [2-(4-methoxyphenyl)-5-[1-[(2-methylpropan-2-yl)oxy-oxomethyl]-4-piperidinyl]-6-pyrazolo[1,5-a]pyrimidinecarboxylic acid] | 4.44
Cc1cc(NC(=O)c2ccc(S(=O)(=O)N3CCCC3)cc2)nc2c1c(=O)oc1ccccc12 [MLS000091355] | 4.58
Cc1ccc(-c2csc(NC(=O)c3ccno3)n2)cc1 [MLS000081820] | 4.30
CCn1c(SCC(=O)Nc2ccc3c(c2)c2ccccc2n3CC)nnc1-c1ccco1 [MLS000050867] | 4.68

Structure (SMILES) | pIC50
CC(C)Cn1c(N)c(C(=O)COC(=O)c2cc(-c3ccco3)nc3ccccc23)c(=O)n(C)c1=O [2-(2-furanyl)-4-quinolinecarboxylic acid [2-[4-amino-1-methyl-3-(2-methylpropyl)-2,6-dioxo-5-pyrimidinyl]-2-oxoethyl] ester] | 4.59
CCCCNC(=O)c1c(N)n(CCCOC)c2nc3ccccc3nc12 [2-amino-N-butyl-1-(3-methoxypropyl)-3-pyrrolo[3,2-b]quinoxalinecarboxamide] | < 4.30
N#Cc1c(N2CCCC2)nc(N)c2c(N)nc(N3CCCC3)cc12 [SMR000061605] | < 4.30
COc1ccc(-n2c(NC(=O)c3ccco3)c(C#N)c3nc4ccccc4nc32)cc1 [MLS000079925] | < 4.30
O=C(NC1(O)C(=O)c2ccccc2C1=O)c1ccccc1 [N-(2-hydroxy-1,3-dioxo-2-indenyl)benzamide] | < 4.30
Cc1nc2cc(-c3cccc(F)c3)nn2c(C)c1CCC(=O)N1CCC2(CC1)OCCO2 [1-(1,4-dioxa-8-azaspiro[4.5]decan-8-yl)-3-[2-(3-fluorophenyl)-5,7-dimethyl-6-pyrazolo[1,5-a]pyrimidinyl]-1-propanone] | < 4.30
Cc1cccc(NC(=O)c2cc(NC(=O)C3CCCCC3C(=O)O)ccc2N2CCCCC2)c1 (configuration not stated) [2-({[3-{[(3-methylphenyl)amino]carbonyl}-4-(1-piperidinyl)phenyl]amino}carbonyl)cyclohexanecarboxylic acid] | < 4.30
O=C(Nc1ccccc1)c1ccc2nc(-c3ccco3)c(-c3ccco3)nc2c1 [2,3-di-2-furyl-N-phenyl-6-quinoxalinecarboxamide] | 4.49
COc1ccc(Br)cc1C=c1sc2nc(-c3ccco3)nn2c1=O [5-[(5-bromanyl-2-methoxy-phenyl)methylidene]-2-(furan-2-yl)-[1,3]thiazolo[3,2-b][1,2,4]triazol-6-one] | 4.76
CCCCn1c(SCC(=O)c2ccc(OC)cc2OC)nc2cc(S(N)(=O)=O)ccc21 [1-butyl-2-[2-(2,4-dimethoxyphenyl)-2-oxidanylidene-ethyl]sulfanyl-benzimidazole-5-sulfonamide] | 4.38
CCCCCNC(=O)c1ccc2c(=O)[nH]c3c(C(=O)NCC4CCCO4)sc(=S)n3c2c1 (configuration not stated) [5-oxo-N3-(2-oxolanylmethyl)-N8-pentyl-1-sulfanylidene-4H-thiazolo[3,4-a]quinazoline-3,8-dicarboxamide] | 4.44
CCc1ccc(NC(=O)CSc2nc3ccccc3c(=O)n2CCN2CCOCC2)cc1 [MLS000095236] | < 4.30
CCOC(=O)c1ccc2c(c1)C1C=CCC1C(C(=O)O)N2 (configuration not stated) [MLS-0025126.0001] | 4.49
O=C(OC1CCCCC1)c1ccc2c(c1)C1C=CCC1C(C(=O)O)N2 (configuration not stated) [SMR000019385] | 4.76
O=C(c1cccs1)c1no[n+]([O-])c1C(=O)c1cccs1 [(5-oxidanidyl-4-thiophen-2-ylcarbonyl-1,2,5-oxadiazol-5-ium-3-yl)-thiophen-2-yl-methanone] | 5.16
Cc1nc2c(C(=O)NCCC3=CCCCC3)c[nH]n2c(=O)c1Cl [6-chloro-N-(2-cyclohex-1-en-1-ylethyl)-7-hydroxy-5-methylpyrazolo[1,5-a]pyrimidine-3-carboxamide] | 4.30
[O-]/[N+](=C\c1ccncc1)c1ccccc1 | 4.33
CCCCn1c(NC(=O)c2ccccc2)c(C#N)c2nc3ccccc3nc21 [SMR000060333] | 4.49
FC(F)(F)c1ccc(N2CCOCC2)c(Nc2nc3ccccc3n3cnnc23)c1 [MLS000093276] | < 4.30

Structure (SMILES) | pIC50
COCCCn1c(N)c(C(=O)NCCC(C)C)c2nc3ccccc3nc21 [MLS000041744] | < 4.30
CCn1nc(-c2cccs2)nc2c(=O)n(C)c(=O)nc1-2 [1-ethyl-6-methyl-3-thiophen-2-yl-pyrimido[5,4-e][1,2,4]triazine-5,7-dione] | < 4.30
N#Cc1c(NC(=O)c2ccc(Br)o2)n(-c2ccccc2)c2nc3ccccc3nc12 [5-bromanyl-N-(3-cyano-1-phenyl-pyrrolo[3,2-b]quinoxalin-2-yl)furan-2-carboxamide] | < 4.30
CCCCCC#CCC#CCC#CCC#CCCCC(=O)O | 4.88
Cc1cc(C)n2c(SCC(=O)N3CCN(S(=O)(=O)c4ccc(Cl)cc4)CC3)nnc2n1 [1-[4-(4-chlorophenyl)sulfonyl-1-piperazinyl]-2-[(5,7-dimethyl-[1,2,4]triazolo[4,3-a]pyrimidin-3-yl)thio]ethanone] | 4.30
Nc1c(N2CCCC2)cc(Cl)c2nonc12 [(7-chloro-5-pyrrolidino-benzofurazan-4-yl)amine] | < 4.30
Cc1c(N=c2c(=O)c3ccccc3c2=O)c(=O)n(-c2ccccc2)n1C [MLS000105950] | < 4.30
CC(C)Sc1nc2sc3c(c2c2nnc(SCC(=O)NCc4ccco4)n12)CCCC3 [MLS000082957] | 4.64
Cc1ccc(/C=C/C2=Cc3c(sc(NC(=O)CSc4nnc(N)[nH]4)c3C#N)C(C)(C)C2)o1 [2-[(5-azanyl-1H-1,2,4-triazol-3-yl)sulfanyl]-N-[3-cyano-7,7-dimethyl-5-[(E)-2-(5-methylfuran-2-yl)ethenyl]-6H-1-benzothiophen-2-yl]ethanamide] | 4.70
Cc1cccc(N2CCN(C(=O)Cc3c(C(=O)O)[nH]c4ccc(Cl)cc34)CC2)c1C [5-chloranyl-3-[2-[4-(2,3-dimethylphenyl)piperazin-1-yl]-2-oxidanylidene-ethyl]-1H-indole-2-carboxylic acid] | 4.33
[O-]/[N+](=C\c1ccc(OC(F)F)cc1)c1ccccc1 [1-[4-(difluoromethoxy)phenyl]-N-phenylmethanimine oxide] | < 4.30
COc1cc(/C=C(/C#N)c2ccc(F)cc2)ccc1OCc1ccc(C(=O)O)o1 [5-({4-[2-cyano-2-(4-fluorophenyl)vinyl]-2-methoxyphenoxy}methyl)-2-furoic acid] | < 4.30
O=C1Nc2ccccc2SC(c2ccccc2)C1O (configuration not stated) [3-hydroxy-2-phenyl-2,3-dihydro-1,5-benzothiazepin-4(5H)-one] | 4.45
CC(=O)[C@@H]1[C@@H]2C(=O)N(c3ccc(F)c(Cl)c3)C(=O)[C@@H]2C2c3ccccc3C=CN21 (some centres not stated) [MLS000040594] | < 4.30
O=C1c2ccccc2-c2onc3ccc(NCCCn4ccnc4)c1c23 [SMR000044769] | 4.45
[O-]/[N+](=C/c1ccc(F)cc1)c1ccccc1 [(E)-(4-fluorobenzylidene)(phenyl)azane oxide] | < 4.30
CCOc1ccc(-c2cc3nc(C4CCN(C(=O)OC(C)(C)C)CC4)c(C(=O)O)cn3n2)cc1 [2-(4-ethoxyphenyl)-5-[1-[(2-methylpropan-2-yl)oxy-oxomethyl]-4-piperidinyl]-6-pyrazolo[1,5-a]pyrimidinecarboxylic acid] | 4.56
COc1ccc2noc3c2c1C(=O)c1ccccc1-3 [MLS000106874] | 4.84
CCOc1ccc2noc3c2c1C(=O)c1ccccc1-3 [MLS000106837] | 4.52
